Assay results taken from DBAASP.
Converted amounts (≈) assume the structure as drawn. “And” between values parts separate entries of the source, which are not always exact repeats. Identical values can stand only once.

Key:
Assay in all cases: ≥ marks a high value that may be exact or a test limit, other limits are often not marked, values filed in µg/mL are converted to µM
[1] = test system: Escherichia coli ATCC 25922
[2] = test system: Staphylococcus aureus ATCC 29213
Pseudomonas aeruginosa = test system: Pseudomonas aeruginosa
[3] = test system: Enterococcus faecalis ATCC 29212
[4] = test system: Pseudomonas aeruginosa ATCC 27853
Escherichia coli = test system: Escherichia coli
Staphylococcus aureus = test system: Staphylococcus aureus

| MIC [1] [µM] | MIC [2] [µM] | Compound | also measured |
| --- | --- | --- | --- |
| 10 (≈ 17.1 µg/mL) | > 40 | CC[C@H](C)[C@H](NC(=O)[C@H](CCCN=C(N)N)NC(=O)[C@H](CCC(N)=O)NC(=O)[C@@H](NC(=O)[C@@H](NC(=O)[C@H](CCCN=C(N)N)NC(=O)[C@H](CCCCN)NC(=O)[C@@H](N)Cc1ccccc1)[C@@H](C)CC)C(C)C)C(=O)N[C@@H](CCCCN)C(=O)N[C@@H](CC(=O)O)C(=O)N[C@@H](Cc1cnc[nH]1)C(=O)N[C@@H](CC(C)C)C(=O)N[C@@H](CCCN=C(N)N)C(=O)O [FKRIVQRIKDHLR] | – |
| 91.7 (≈ 125 µg/mL) | 22.9 (≈ 31.3 µg/mL) | CC(C)[C@H](NC(=O)[C@H](Cc1c[nH]c2ccccc12)NC(=O)[C@H](CCCCN)NC(=O)[C@@H](N)CCCN=C(N)N)C(=O)N[C@@H](Cc1ccc(O)cc1)C(=O)N[C@@H](Cc1c[nH]c2ccccc12)C(=O)N[C@@H](CCCN=C(N)N)C(=O)N[C@@H](CC(N)=O)C(=O)N[C@@H](CCCN=C(N)N)C(=O)O [RKWVYWRNR] | – |

The remaining lines, values behind:

| Compound | MIC [1] [µM] | MIC [2] [µM] | also measured |
| --- | --- | --- | --- |
| CC[C@H](C)[C@H](NC(=O)[C@H](Cc1ccccc1)NC(=O)[C@H](CO)NC(=O)[C@H](CCCCN)NC(=O)[C@H](Cc1c[nH]c2ccccc12)NC(=O)[C@@H](N)CCCCN)C(=O)N[C@@H](CCCCN)C(=O)N[C@@H](CCCCN)C(=O)N[C@@H](C)C(=O)N[C@@H](CCCCN)C(=O)N[C@H](C(=O)N[C@@H](CO)C(=O)N[C@@H](Cc1ccccc1)C(=O)N[C@@H](CC(C)C)C(=O)N[C@@H](Cc1cnc[nH]1)C(=O)N[C@@H](CO)C(=O)N[C@@H](C)C(=O)N[C@@H](CCCCN)C(=O)N[C@@H](CCCCN)C(=O)N[C@@H](Cc1ccccc1)C(N)=O)[C@@H](C)O [KWKSFIKKAKTSFLHSAKKF] | – | – | MIC (Pseudomonas aeruginosa): 10.4 µM (≈ 25 µg/mL) |
| CC[C@H](C)[C@H](NC(=O)[C@H](Cc1ccccc1)NC(=O)[C@H](CO)NC(=O)[C@H](CCCCN)NC(=O)[C@H](Cc1c[nH]c2ccccc12)NC(=O)[C@@H](N)CCCCN)C(=O)N[C@@H](CCCCN)C(=O)N[C@@H](CCCCN)C(=O)N[C@@H](CC(C)C)C(=O)N[C@H](C(=O)N[C@@H](CO)C(=O)N[C@@H](CCCCN)C(=O)N[C@@H](Cc1ccccc1)C(=O)N[C@@H](CC(C)C)C(=O)N[C@@H](Cc1cnc[nH]1)C(=O)N[C@@H](CO)C(=O)N[C@@H](C)C(=O)N[C@@H](CC(=O)O)C(=O)N[C@@H](CCCCN)C(=O)N[C@@H](Cc1ccccc1)C(N)=O)[C@@H](C)O [KWKSFIKKLTSKFLHSADKF] | – | – | MIC (Pseudomonas aeruginosa): 10.2 µM (≈ 25 µg/mL) |
| CC[C@H](C)[C@H](NC(=O)[C@@H]1CCCN1C(=O)[C@H](CC(C)C)NC(=O)[C@@H](N)CC(C)C)C(=O)N[C@H](C(=O)NCC(=O)N[C@@H](CC(N)=O)C(=O)N[C@@H](CC(C)C)C(=O)N[C@@H](CC(C)C)C(=O)N[C@@H](CCCCN)C(=O)N[C@@H](CO)C(=O)N[C@@H](CC(C)C)C(=O)N[C@@H](CC(C)C)C(=O)NCC(=O)N[C@@H](Cc1c[nH]c2ccccc12)C(=O)N[C@@H](CCCCN)C(=O)N[C@@H](CCCN=C(N)N)C(=O)N[C@@H](CCCCN)C(=O)N[C@@H](CCCN=C(N)N)C(=O)N[C@@H](Cc1ccccc1)C(=O)NCC(N)=O)C(C)C [LLPIVGNLLKSLLGWKRKRFG] | – | – | MIC [3]: 5 µM and 12.5 µM; MIC [4]: 4 µM and 8 µM |
| CC[C@H](C)[C@H](NC(=O)[C@H](CS)NC(=O)[C@H](CCCN=C(N)N)NC(=O)[C@@H](N)CC(C)C)C(=O)N[C@@H](C)C(=O)N[C@@H](CC(C)C)C(=O)N[C@@H](CCCN=C(N)N)C(=O)N[C@@H](CCCCN)C(=O)N[C@@H](CCCCN)C(N)=O [LRCIALRKK] | – | – | MIC (Escherichia coli): 20.6 µM (≈ 22.6 µg/mL); MIC (Staphylococcus aureus): > 58.2 µM |
| CC(=O)N[C@@H](CCC(N)=O)C(=O)N[C@@H](C)C(=O)N[C@@H](CCCCN)C(=O)O [QAK] | 10.9 (≈ 4.21 µg/mL) | 21.7 (≈ 8.41 µg/mL) | – |
| CC(C)C[C@H](NC(=O)[C@H](Cc1ccc(O)cc1)NC(=O)[C@H](CCCCN)NC(=O)[C@H](Cc1c[nH]c2ccccc12)NC(=O)[C@H](Cc1ccccc1)NC(=O)[C@H](CCCCN)NC(=O)[C@H](CCCN=C(N)N)NC(=O)[C@@H](N)Cc1c[nH]c2ccccc12)C(=O)N[C@@H](CCCCN)C(N)=O [WRKFWKYLK] | 22.9 (≈ 31 µg/mL) | 22.9 (≈ 31 µg/mL) | MIC [3]: 185 µM and > 92.3 µM |
